The values that follow come from article PMC6776562, “Inhibition of Rac1-dependent forgetting alleviates memory deficits in animal models of Alzheimer’s disease” (Protein & Cell, 2019).

A word on the Tmax: it is the time from dosing to the highest level.

Data set [1] in a line: Pharmacokinetics study in CD1 mice. Format: in vivo. To be noted: for AUC0-infinity / AUC0-t / T1/2 / Tmax / F (bioavailability): CD1 mice; for AUC0-infinity / AUC0-t / T1/2 / Tmax: plasma, estimated value, n = 3; for AUC0-infinity / AUC0-t / T1/2: P.O 50 mg/kg CS7171, 40 mg/kg JKF-034 (I.V 10 and 2.5 mg/kg), route of the parameter not stated; for Tmax: P.O 50 mg/kg CS7171, 40 mg/kg JKF-034; for F (bioavailability): P.O 50 mg/kg vs I.V 10 mg/kg CS7171, P.O 40 mg/kg vs I.V 2.5 mg/kg JKF-034. The procedure:
For the CS7171 and JKF-034 pharmacokinetics (PK) assays, 30 CD1 mice were purchased from JH Laboratory Animal Co. LTD (Qualification No: SCXK (SH) 2017-001220170012002565). A total of 18 CD1 mice were grouped for intravenous injection (I.V) with 10 mg/kg CS7171 and 2.5 mg/kg JKF-034. Sampling was performed at 0.083, 0.25, 0.5, 1, 3, 6 and 24 h after administration. A total of 12 CD1 mice were grouped for oral administration (P.O) of 50 mg/kg CS7171 and 40 mg/kg JKF-034. Sampling was performed at 0.25, 0.5, 1, 3, 6 and 24 h after administration. The blood samples were maintained in wet ice first and centrifuged to obtain plasma within 15 min post-sampling. Subsequently, the samples were subjected to LC-MS/MS analysis.

Data set [2] is described as follows: In vitro metabolic stability in human liver microsomes. In kind it is in vitro ADME. The protocol:
(§1) Measurements of metabolic stability can be performed with liver microsomes, which are known to contain the major drug-metabolizing enzymes and UDP-glucuronosyltransferase (Baranczewski et al., [2006]). The in vitro metabolic stability levels of CS7171 and JKF-034 were measured using human, monkey, and mouse liver microsomes. The metabolic half-time (T1/2) and intrinsic clearance (Clint) were assayed using LC-MS analysis. Ketanserin is a potent, orally effective antagonist of endogenous serotonin. Its pharmacological profile is well studied (Brogden and Sorkin, [1990]). In this study, we used ketanserin as a control. If the T1/2 of the tested compound was 30–120 min, the compound was considered to show moderate metabolism in liver microsomes. If the T1/2 value was less than 30 min, the compound was considered to be susceptible to metabolism in liver microsomes.

Data set [3] in a line: In vitro metabolic stability in mouse liver microsomes. In kind it is in vitro ADME. The protocol:
as §1
Background: Microsomes from liver hold many membrane-bound enzymes, among them those of drug oxidation.

The subject of another data set is RhoA. Nature of the data set: RhoA activity (RhoA-GTP) by Western blot after drug administration. In kind it is in vivo. To be noted: 7-month-old APP/PS1 mice; two weeks of P.O administration. The procedure:
The hippocampal tissues from human subjects and mice were harvested and stored in a liquid nitrogen tank for biochemical assay. The tissues were homogenized in cold lysis buffer (Merck-Millipore, 20-168). The insoluble debris were removed after centrifugation at 13,000 rpm (for 10 min, at 4 °C). For GTP-bound Rac/Cdc42, lysates were incubated with GST-tagged PAK (p21-activated kinase)-PBD agarose beads (Cytoskeleton, PAK02) overnight at 4 °C. On the second day, the beads were washed three times with lysis buffer before subjecting them to SDS-PAGE (15%) and transferring them onto nitrocellulose membranes (Millipore, HATF00010). The membranes were incubated with primary antibodies (for Rac1: BD Transduction Laboratories, #610650, 1:2,000 dilution; for Cdc42, Santa Cruz Biotechnology, lot No. sc-8401, 1:500 dilution) overnight at 4 °C and with HRP-conjugated goat anti-mouse IgG (Cell Signaling Technology, #7076) for 1 h at room temperature. Intensities of the detected bands were analyzed using ImageJ software (National Institutes of Health). The total amount of Rac1 in the lysate was detected using a routine Western blot procedure. RhoA-GTP levels were measured by using the Rho-GTP monoclonal antibody (New East, lot No. 26904, Dilution: 1:1,000). […] Data information: All values are expressed as mean r SEM.
For orientation: In western blotting, separated proteins are transferred to a membrane and probed.

The test system of another data set is APP/PS1 mice. As to the kind of experiment: Morris water maze (MWM) spatial learning in AD mice. In kind it is in vivo, mouse. Conditions: APP/PS1 mice (eight-month-old); oral CS7171 50 mg/kg, CS7170 50 mg/kg, JKF-034 40 mg/kg once per day. The protocol:
Mice were treated with EHop-016 (10 mg/kg), CS7170 (50 mg/kg), CS7171 (50 mg/kg), and JKF-034 (40 mg/kg). These drugs were dissolved in saline (0.9% NaCl) containing 0.5% Tween-80 (Sigma P4780). Each mouse received 200 μL of the solution by intragastric administration once per day (administered at 9:00 am). The drug administration was started seven days before the beginning of the Morris water maze (MWM) task and was continued until the end of the assay. All control groups were fed with vehicle solution.
The MWM test, a classic paradigm used to study spatial reference memory, was performed (Vorhees and Williams, [2006]). Briefly, a circular polypropylene water tank (120 cm in diameter) was filled with opaque water and milk (20 °C ± 1 °C) and a transparent platform (15 cm diameter) was submerged (2 cm below the water surface) in the center of one of the four virtually divided quadrants. Distal cues were fixed on the wall of the tank as spatial references. For the classic training paradigm (Figs. 2 and 6), mice were allowed to find the platform within 60 s and to remain on it for at least 5 s. For the modified training paradigm (Fig. 3A), mice were trained over 5 consecutive sessions with a 1-h intervals within one day. After training, mice were returned to their home cages and the memory of the location of the platform was tested at 6 h after training (Fig. 3C–D). A mouse behavior tracking software (ANY-maze software) was used to record data automatically.

Entries after “also recorded” stand apart in the source; their conditions may differ.

Turning to `O=C1NN(c2ccc(Cl)c(Cl)c2)C(=O)C1=Cc1ccc(O)c(N(O)O)c1` [CS7171], in data set [1], the AUC0-infinity was 4,160 h*ng/mL, the AUC0-t was 4,101 h*ng/mL, the T1/2 is 56.6 min and the Tmax was 15 min. The “F (bioavailability)” value in data set [1] was determined as 28.2%. For the same compound, in data set [2], the Clint is 407.54 mL/min/kg and the T1/2 worked out at 4.27 min. In addition, in data set [3], the Clint was 477.87 mL/min/kg and the T1/2 is on record as 11.42 min. Further, the RhoA activity result in the data set with RhoA is recorded as “did not affect”. Moreover, the “MWM learning deficit / spatial memory” value with APP/PS1 mice is “mitigated learning deficits; also recorded: rescued; also recorded: effective”.

`O=S(=O)(c1ccccc1)N1CCN(Cc2ccccc2)CC1` [JKF-034]: the “metabolic half-time (T1/2) of JKF-034 relative to CS7171” value in data set [1] (CD1 mice PK) was “about ten times higher than that of CS7171”. Also, in data set [1], the AUC0-infinity is given as 1,692 h*ng/mL, the AUC0-t is listed as 1,262 h*ng/mL, the T1/2 was 551 min and the time of peak concentration (Tmax) is 30 min. For the same compound, in data set [1], the “F (bioavailability)” value is given as 19.3%. Also, in data set [2], the Clint came to 95.92 mL/min/kg and the T1/2 amounted to 18.12 min. In data set [3], the Clint is recorded as 4,702.82 mL/min/kg and the T1/2 is 1.16 min. For the same compound, the RhoA activity entry with RhoA is on record as “did not affect”. In addition, in the data set with APP/PS1 mice, the “MWM learning deficit / spatial memory” value is “effective; also recorded: rescued”.
